Laboratory results as given in BindingDB's records for patent US12065430 (Taiho Pharmaceutical, 2024).

molecular target: T1, Son of sevenless homolog 1 [564-1049]/GTPase KRas [G12C] (UniProt P01116+Q07889, G12C); experiment: Evaluation of Inhibitory Activity of Compounds on KRAS G12C Nucleotide (GDP-GTP) Exchange Reaction
T1 construct: 564-1049
Description: The inhibitory activity of compounds on exchange reaction of GDP into GppNHp in Bodipy (trademark) FL-bound KRAS G12C was examined by fluorescence measurement using human recombinant KRAS G12C and SOS1 proteins.For the preparation of KRAS G12C to which Bodipy FL GDP was bound, first, […] KRAS G12C (amino acid region: 1-169) and 1 mM Bodipy FL GDP (Invitrogen, G22360) were incubated for 1 hour in a buffer (20 mM Tris-HCl (pH 7.5), 50 mM NaCl, 1 mM DTT) in ice in the presence of 2.5 mM EDTA. Thereafter, MgCl2 with a final concentration of 10 mM was added, and the mixture was incubated at room temperature for 30 minutes. The protein was allowed to pass through a NAP-5 column to remove free nucleotides and was used for compound evaluation.For the measurement of the inhibitory activity of compounds on nucleotide exchange reaction, first, the compound of the present invention was diluted stepwise with dimethyl sulfoxide (DMSO). Subsequently, a solution of the gradually diluted compound of the present invention in DMSO (the final concentration of DMSO: 5%) and KRAS G12C (25 nM) bound to Bodipy FL GDP were added to a reaction buffer (20 mM Tris-HCl (pH 7.5), 100 mM NaCl, 1 mM MgCl2, 2 mM DTT, 0.1% Tween20), followed by preincubation at 25° C. for 4 hours. Thereafter, Son of Sevenless Homolog 1 (SOS1, amino acid region: 564-1049) and GppNHp (GMPPNP, Jena Bioscience GmbH, NU-401-50) were added such that their final concentration was 100 nM and 1 μM respectively, followed by reaction for 30 minutes. The change in fluorescence intensity of Bodipy FL (excitation wavelength: 485 nm, fluorescence wavelength: 520 nm) immediately after the start of reaction and after 30 minutes from the start of reaction was standardized. The signal value for only DMSO was determined to be 0% inhibition, and the signal value for no addition of GppNHp was determined to be 100% inhibition. The compound concentration at which 50% inhibition is achieved was determined to be IC50 (nM), and was calculated.

T1 sequence (P01116 whole entry G12C): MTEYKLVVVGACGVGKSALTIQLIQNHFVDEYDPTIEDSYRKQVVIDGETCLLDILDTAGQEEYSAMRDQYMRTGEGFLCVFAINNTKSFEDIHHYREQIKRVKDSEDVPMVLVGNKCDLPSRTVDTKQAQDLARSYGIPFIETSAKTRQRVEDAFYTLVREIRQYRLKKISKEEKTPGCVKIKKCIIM
T1 sequence (Q07889 564-1049): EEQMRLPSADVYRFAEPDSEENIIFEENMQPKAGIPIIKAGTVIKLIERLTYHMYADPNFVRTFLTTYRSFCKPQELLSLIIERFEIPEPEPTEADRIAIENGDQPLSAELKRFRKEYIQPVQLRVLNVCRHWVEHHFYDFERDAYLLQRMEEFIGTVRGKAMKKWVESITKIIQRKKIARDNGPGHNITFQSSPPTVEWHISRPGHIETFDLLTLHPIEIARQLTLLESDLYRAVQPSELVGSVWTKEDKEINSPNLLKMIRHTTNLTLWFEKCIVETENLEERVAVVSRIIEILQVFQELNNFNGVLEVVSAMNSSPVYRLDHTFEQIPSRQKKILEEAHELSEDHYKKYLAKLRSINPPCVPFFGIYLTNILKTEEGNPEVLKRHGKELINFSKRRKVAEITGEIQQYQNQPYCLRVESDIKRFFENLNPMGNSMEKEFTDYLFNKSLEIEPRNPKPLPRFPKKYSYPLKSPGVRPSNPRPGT

Compound | IC50 [nM]
C=CC(=O)N1CC(NC(=O)c2c(Cl)nc(CNc3n[nH]c4cc(Cl)c(C(C)(C)C)cc34)n2C2CN(C(C)=O)C2)C1 [US12065430, Example 108] | 9
C=CC(=O)N1CC(NC(=O)c2c(C)nc(CNc3n[nH]c4cc(Cl)c(C(C)(C)C)cc34)n2C2CCCC2)C1 [US12065430, Example 17] | 17
C=CC(=O)N1CC(NC(=O)c2c(Cl)nc(CNc3n[nH]c4cc(Cl)c(C(C)(C)C)cc34)n2CC2CCCC2)C1 [US12065430, Example 110] | 9
C=CC(=O)N1C[C@H](NC(=O)c2c(Cl)nc(CNc3n[nH]c4cc(Cl)c(C(C)(C)C)cc34)n2C)[C@@H](F)C1 [US12065430, Example 76] | 13
C=CS(=O)(=O)N1CC(NC(=O)c2c(C)nc(CNc3n[nH]c4cc(Cl)c(C(C)(C)C)cc34)n2C(C)C)C1 [US12065430, Example 86] | 58
C=CC(=O)N1CC(NC(=O)c2c(C(F)F)nc(CNc3n[nH]c4cc(Cl)c(C(C)(C)C)cc34)n2C2CCN(C(C)C)C2)C1 (stereo not given) [US12065430, Example 93] | 6
C=CC(=O)N1CC(NC(=O)c2c(Cl)nc(CNc3n[nH]c4cc(Cl)c(C(C)(C)C)cc34)n2CCCC)C1 [US12065430, Example 87] | 14
C=CC(=O)N1CC(NC(=O)c2c(C)nc(CNc3n[nH]c4cc(Cl)c(C(C)(C)C)cc34)n2CCOC)C1 [US12065430, Example 14] | 24
C=CC(=O)N1CC(NC(=O)c2c(Cl)nc(CNc3n[nH]c4cc(Cl)c(C(C)(C)C)cc34)n2C2CCOCC2)C1 [US12065430, Example 101] | 7
C=CC(=O)N1CC(NC(=O)c2c(C)nc(CNc3n[nH]c4cc(Cl)c(C(C)(C)C)cc34)n2CCN(C)C)C1 [US12065430, Example 16] | 25
C=CC(=O)N1CC(NC(=O)c2c(C)nc(CNc3n[nH]c4cc(Cl)c(C(C)(C)C)cc34)n2CC)C1 [US12065430, Example 12] | 16
C=CC(=O)N1CC(NC(=O)c2c(C)nc(CNc3n[nH]c4cc(Cl)c(C(C)(C)C)cc34)n2CCC)C1 [US12065430, Example 19] | 9
C=CC(=O)N1CC(NC(=O)c2cnc(CNc3n[nH]c4cc(Cl)c(CC)cc34)n2C)C1 [US12065430, Example 39] | 870
C=CC(=O)N1CC(NC(=O)c2c(C(F)F)nc(CNc3n[nH]c4cc(Cl)c(C(C)(C)C)cc34)n2C2CCN(C(C)=O)C2)C1 (stereo not given) [US12065430, Example 96] | 4
C=CC(=O)N1CC[C@@H](NC(=O)c2c(Cl)nc(CNc3n[nH]c4cc(Cl)c(C(C)(C)C)cc34)n2C)C1 [US12065430, Example 73] | 52
C=CC(=O)N1CC(NC(=O)c2c(C(F)(F)F)nc(CNc3n[nH]c4cc(Cl)c(C(C)(C)C)cc34)n2C)C1 [US12065430, Example 25] | 163
C=CC(=O)N1C[C@@H](C)[C@@H](NC(=O)c2c(F)nc(CNc3n[nH]c4cc(Cl)c(C(C)(C)C)cc34)n2C)C1 [US12065430, Example 74] | 36
C=CC(=O)N1CC(NC(=O)c2c(C)nc(CNc3n[nH]c4cc(Cl)c(C(C)(C)C)cc34)n2C)C(F)(F)C1 (stereo not given) [US12065430, Example 53] | 42
C=CC(=O)N1CC(NC(=O)c2c(C)nc(CNc3n[nH]c4ccc(C(C)(C)C)cc34)n2C(C)C)C1 [US12065430, Example 42] | 68
C=CC(=O)N1CC(NC(=O)c2c(C)nc(CNc3n[nH]c4cc(Cl)c(C(C)(C)C)cc34)n2CC(F)(F)F)C1 [US12065430, Example 22] | 55
C=CC(=O)N1CC(NC(=O)c2c(C#N)nc(CNc3n[nH]c4cc(Cl)c(C(C)(C)C)cc34)n2C)C1 [US12065430, Example 28] | 70
C=CC(=O)N1CC(NC(=O)c2c(I)nc(CNc3n[nH]c4cc(Cl)c(C(C)(C)C)cc34)n2C)C1 [US12065430, Example 26] | 69
C=CC(=O)N1CC(NC(=O)c2sc(CNc3n[nH]c4cc(Cl)c(C(C)(C)C)cc34)nc2C)C1 [US12065430, Example 2] | 365
C=CC(=O)N1CC(NC(=O)c2cnc(C(C)Nc3n[nH]c4cc(Cl)c(C(C)(C)C)cc34)n2C)C1 (stereo not given) [US12065430, Example 4] | 1560
C=CC(=O)N1CC(NC(=O)c2cnc(CNc3n[nH]c4cc(Cl)c(C(C)(C)C)cc34)s2)C1 [US12065430, Example 8] | 783

Compound | IC50 [nM]
C=CC(=O)N1CC(NC(=O)c2c(Cl)nc(CNc3n[nH]c4cc(Cl)c(C(C)C)cc34)n2C(C)C)C1 [US12065430, Example 45] | 24
C=CC(=O)N1CC(NC(=O)c2c(F)nc(CNc3n[nH]c4cc(Cl)c(C(C)(C)C)cc34)n2C)C1 [US12065430, Example 30] | 11
C=CC(=O)N1CC(NC(=O)c2c(Cl)nc(CNc3n[nH]c4cc(Cl)c(C(C)(C)C)cc34)n2[C@@H]2CCN(c3ccccn3)C2)C1 [US12065430, Example 124] | 6
C=CC(=O)N1CC(NC(=O)c2c(Cl)nc(CNc3n[nH]c4cc(Cl)c(C(C)(C)C)cc34)n2C)C1 [US12065430, Example 29] | 6
C=CC(=O)N1CC(NC(=O)c2c(Cl)nc(CNc3n[nH]c4cc(Cl)c(C(C)(C)C)cc34)n2C2CC=CC2)C1 [US12065430, Example 98] | 7
C=CCN1CC[C@@H](n2c(CNc3n[nH]c4cc(Cl)c(C(C)(C)C)cc34)nc(Cl)c2C(=O)NC2CN(C(=O)C=C)C2)C1 [US12065430, Example 123] | 9
C=CC(=O)N1CC(NC(=O)c2c(C(F)F)nc(CNc3n[nH]c4cc(Cl)c(C(C)(C)C)cc34)n2C2CCN(CC)C2)C1 (stereo not given) [US12065430, Example 92] | 10
C=CC(=O)N1C[C@@H](C)[C@@H](NC(=O)c2c(Cl)nc(CNc3n[nH]c4cc(Cl)c(C(C)(C)C)cc34)n2C)C1 [US12065430, Example 78] | 20
C/C=C/C(=O)N1CC(NC(=O)c2c(C)nc(CNc3n[nH]c4cc(Cl)c(C(C)(C)C)cc34)n2C(C)C)C1 [US12065430, Example 81] | 2630
C=CC(=O)N1C[C@@H](CC#N)[C@@H](NC(=O)c2c(C)nc(CNc3n[nH]c4cc(Cl)c(C(C)(C)C)cc34)n2C)C1 [US12065430, Example 65] | 19
C=CC(=O)N1CC(NC(=O)c2c(Cl)nc(CNc3n[nH]c4cc(Cl)c(C5(C(F)(F)F)CC5)cc34)n2C(C)C)C1 [US12065430, Example 44] | 180
C=CC(=O)N1CC(NC(=O)c2c(C)nc(CNc3n[nH]c4cc(Cl)c(C(C)(C)C)cc34)n2Cc2ccccc2)C1 [US12065430, Example 15] | 84
C=CC(=O)N1CCN(C(=O)c2c(C)nc(CNc3n[nH]c4cc(Cl)c(C(C)(C)C)cc34)n2C)CC1 [US12065430, Example 50] | 4280
C=CC(=O)N1CC(NC(=O)c2c(Cl)nc(CNc3n[nH]c4cc(Cl)c(C(C)(C)C)cc34)n2[C@@H]2CCN(Cc3ccccc3)C2)C1 [US12065430, Example 122] | 6
C=CC(=O)N1CC(NC(=O)c2c(Cl)nc(CNc3n[nH]c4cc(Cl)c(C(C)(C)C)cc34)n2C2CCCN(C)C2)C1 (stereo not given) [US12065430, Example 118] | 5
C=CC(=O)N1CC(NC(=O)c2csc(CNc3n[nH]c4cc(Cl)c(C(C)(C)C)cc34)n2)C1 [US12065430, Example 7] | 4260
C=CC(=O)N1C[C@@H](CF)[C@@H](NC(=O)c2c(C)nc(CNc3n[nH]c4cc(Cl)c(C(C)(C)C)cc34)n2C)C1 [US12065430, Example 66] | 20
C=CC(=O)N1CC(NC(=O)c2c(Cl)nc(CNc3n[nH]c4cc(Cl)c(C(C)(C)C)cc34)n2C(C)C)C1 [US12065430, Example 35] | 8
CC(C)n1c(CNc2n[nH]c3cc(Cl)c(C(C)(C)C)cc23)nc(C(F)F)c1C(=O)NC1CN(C(=O)/C=C/CN(C)C)C1 [US12065430, Example 84] | 63
C=CC(=O)N1CC(NC(=O)c2c(Cl)nc(CNc3n[nH]c4cc(Cl)c(C(C)(C)C)cc34)n2C2CCCC2)C1 [US12065430, Example 105] | 8
C=CC(=O)N1CC(NC(=O)c2c(C)nc(CNc3n[nH]c4cc(Cl)c(C(C)(C)C)cc34)n2C(F)F)C1 [US12065430, Example 21] | 58
C=CC(=O)N1CC(NC(=O)c2cnc(CNc3n[nH]c4cc(Cl)c(C(C)(C)C)cc34)n2C)C1 [US12065430, Example 1] | 16
C=CC(=O)N1CC(NC(=O)c2c(Cl)nc(CNc3n[nH]c4cc(Cl)c(C(C)(C)C)cc34)n2[C@@H]2C[C@@H](O)[C@@H](O)C2)C1 [US12065430, Example 99] | 7
C=CC(=O)N1CC(NC(=O)c2c(Cl)nc(CNc3n[nH]c4cc(Cl)c(C(C)(C)C)cc34)n2C2CN(C(=O)OC(C)(C)C)C2)C1 [US12065430, Example 106] | 8
C=CC(=O)N1CC(NC(=O)c2oc(CNc3n[nH]c4cc(Cl)c(C(C)(C)C)cc34)nc2C)C1 [US12065430, Example 11] | 1060
